From ChEMBL document CHEMBL3817783, “Identification of Potential Off-target Toxicity Liabilities of Catechol-O-methyltransferase Inhibitors by Differential Competition Capture Compound Mass Spectrometry” (J Med Chem, 2016)
Calls of active or inactive are those of the source. No cut-off for these calls is given here.

Columns and labels:
[1] = biological target: T1, Acireductone dioxygenase (Homo sapiens, UniProt Q9BV57); test: Binding affinity to ADL1 in human HepG2 assessed as intensity fold change of cumulated normalized intensity of protein between capture and competition assay at 100 uM after 1 hr in presence of active Tcp-CC-13 by differential competition capture compound mass spectrometry; format: ADME
T1 sequence (Q9BV57 whole entry): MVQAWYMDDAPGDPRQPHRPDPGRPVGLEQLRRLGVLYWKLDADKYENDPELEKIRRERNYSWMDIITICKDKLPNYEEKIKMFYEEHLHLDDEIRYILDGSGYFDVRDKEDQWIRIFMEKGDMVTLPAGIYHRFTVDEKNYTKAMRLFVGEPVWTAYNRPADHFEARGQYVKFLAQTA

[2] = biological target: T2, Protein NipSnap homolog 3A (Homo sapiens, UniProt Q9UFN0); test: Binding affinity to NIPSNAP3A in human HepG2 assessed as intensity fold change of cumulated normalized intensity of protein between capture and competition assay at 100 uM after 1 hr in presence of inactive Tcp-CC 14 by differential competition capture compound mass spectrometry; format: ADME
T2 sequence (Q9UFN0 whole entry): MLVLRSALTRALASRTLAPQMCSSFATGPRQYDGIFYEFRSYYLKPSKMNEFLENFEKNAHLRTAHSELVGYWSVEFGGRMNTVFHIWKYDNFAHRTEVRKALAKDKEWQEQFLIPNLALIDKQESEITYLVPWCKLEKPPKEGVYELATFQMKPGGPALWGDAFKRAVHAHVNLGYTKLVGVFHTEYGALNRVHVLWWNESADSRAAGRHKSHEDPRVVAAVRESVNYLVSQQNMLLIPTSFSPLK

[3] = biological target: T3, Catechol O-methyltransferase (Homo sapiens, UniProt P21964); test: (§1) Inhibition of human recombinant His-tagged soluble COMT expressed in Escherichia coli BL21 using aesculetin as substrate after 60 mins by microplate assay in presence of SAM
T3 sequence (P21964 whole entry): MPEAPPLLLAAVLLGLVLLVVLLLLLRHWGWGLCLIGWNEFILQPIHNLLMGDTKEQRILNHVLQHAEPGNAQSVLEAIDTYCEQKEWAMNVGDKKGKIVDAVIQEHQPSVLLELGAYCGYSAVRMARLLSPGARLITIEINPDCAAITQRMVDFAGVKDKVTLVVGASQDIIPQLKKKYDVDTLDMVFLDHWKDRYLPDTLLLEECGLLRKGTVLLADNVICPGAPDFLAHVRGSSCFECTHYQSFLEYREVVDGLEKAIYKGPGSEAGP

[4] = tested on: HepG2; test: Mitochondrial toxicity in human HepG2 cells assessed as mitochondrial membrane potential levels at 50 uM by TMRE-based mitochondria membrane potential assay relative to control; format: cell-based; settings: hepg2, 50 µM
[5] = biological target: T4, 3-hydroxyisobutyryl-CoA hydrolase, mitochondrial (Homo sapiens) (UniProt Q6NVY1); test: Binding affinity to human recombinant HIBCH assessed as intensity fold change of cumulated normalized intensity of protein between capture and competition assay at 100 uM after 1 hr in presence of active Tcp-CC-13 by differential competition capture compound mass spectrometry
T4 sequence (whole entry): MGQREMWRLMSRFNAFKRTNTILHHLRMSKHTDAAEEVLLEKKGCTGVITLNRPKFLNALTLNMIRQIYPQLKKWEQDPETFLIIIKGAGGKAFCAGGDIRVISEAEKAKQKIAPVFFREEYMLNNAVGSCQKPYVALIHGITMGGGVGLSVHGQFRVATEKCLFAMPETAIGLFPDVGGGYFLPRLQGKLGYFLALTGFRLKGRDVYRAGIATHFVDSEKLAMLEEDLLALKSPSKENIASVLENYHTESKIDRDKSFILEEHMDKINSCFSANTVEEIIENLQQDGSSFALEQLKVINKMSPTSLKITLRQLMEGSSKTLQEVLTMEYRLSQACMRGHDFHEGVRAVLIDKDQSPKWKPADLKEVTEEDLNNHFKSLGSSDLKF

[6] = biological target: T5, Pyridoxal kinase (Homo sapiens, UniProt O00764); test: Binding affinity to PDXK in human HepG2 assessed as intensity fold change of cumulated normalized intensity of protein between capture and competition assay at 100 uM after 1 hr in presence of inactive Tcp-CC 14 by differential competition capture compound mass spectrometry; format: ADME
T5 sequence (O00764 whole entry): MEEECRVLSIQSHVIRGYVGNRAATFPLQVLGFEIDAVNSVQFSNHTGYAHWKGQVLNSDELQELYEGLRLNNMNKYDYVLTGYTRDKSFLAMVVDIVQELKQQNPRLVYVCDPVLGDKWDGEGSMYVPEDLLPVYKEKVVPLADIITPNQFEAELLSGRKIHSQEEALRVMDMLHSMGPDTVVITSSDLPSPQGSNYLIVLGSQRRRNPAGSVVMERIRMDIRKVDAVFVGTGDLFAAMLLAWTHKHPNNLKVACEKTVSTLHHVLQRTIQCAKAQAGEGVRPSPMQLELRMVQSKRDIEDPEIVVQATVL

[7] = biological target: T6, Glutaryl-CoA dehydrogenase, mitochondrial (Homo sapiens, UniProt Q92947); test: Binding affinity to GCDH in human HepG2 assessed as intensity fold change of cumulated normalized intensity of protein between capture and competition assay at 100 uM after 1 hr in presence of active Tcp-CC-13 by differential competition capture compound mass spectrometry; format: ADME
T6 sequence (Q92947 whole entry): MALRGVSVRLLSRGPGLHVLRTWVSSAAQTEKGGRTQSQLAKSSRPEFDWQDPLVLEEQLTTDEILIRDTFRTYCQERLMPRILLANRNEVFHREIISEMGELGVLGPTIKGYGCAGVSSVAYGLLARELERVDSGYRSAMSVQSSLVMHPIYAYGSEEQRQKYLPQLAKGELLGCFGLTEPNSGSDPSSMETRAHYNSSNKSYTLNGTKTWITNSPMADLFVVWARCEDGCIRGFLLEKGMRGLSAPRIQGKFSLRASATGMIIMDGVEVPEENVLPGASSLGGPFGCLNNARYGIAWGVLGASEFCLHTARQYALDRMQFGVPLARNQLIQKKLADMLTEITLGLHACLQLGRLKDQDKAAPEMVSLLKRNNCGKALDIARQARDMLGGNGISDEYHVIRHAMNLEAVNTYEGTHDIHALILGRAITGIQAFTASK

[8] = biological target: Aldo-keto reductase family 1 member B10 (Homo sapiens, UniProt O60218); test: Binding affinity to AKR1B10 in human HepG2 assessed as intensity fold change of cumulated normalized intensity of protein between capture and competition assay at 100 uM after 1 hr in presence of inactive Tcp-CC 14 by differential competition capture compound mass spectrometry; format: ADME
Chain of Aldo-keto reductase family 1 member B10 (O60218 whole entry): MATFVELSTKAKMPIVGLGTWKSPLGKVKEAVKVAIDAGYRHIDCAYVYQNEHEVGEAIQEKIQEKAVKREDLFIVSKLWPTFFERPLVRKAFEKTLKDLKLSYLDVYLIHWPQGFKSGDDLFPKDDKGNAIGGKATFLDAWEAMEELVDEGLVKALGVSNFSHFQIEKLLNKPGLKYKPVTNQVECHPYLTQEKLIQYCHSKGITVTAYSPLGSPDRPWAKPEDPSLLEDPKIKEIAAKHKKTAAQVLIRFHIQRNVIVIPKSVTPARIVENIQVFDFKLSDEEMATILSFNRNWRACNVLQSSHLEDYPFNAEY

[9] = biological target: Kynurenine--oxoglutarate transaminase 3 (Homo sapiens, UniProt Q6YP21); test: Binding affinity to CCBL2 in human HepG2 assessed as intensity fold change of cumulated normalized intensity of protein between capture and competition assay at 100 uM after 1 hr in presence of active Tcp-CC-13 by differential competition capture compound mass spectrometry; format: ADME
Chain of Kynurenine--oxoglutarate transaminase 3 (Q6YP21 whole entry): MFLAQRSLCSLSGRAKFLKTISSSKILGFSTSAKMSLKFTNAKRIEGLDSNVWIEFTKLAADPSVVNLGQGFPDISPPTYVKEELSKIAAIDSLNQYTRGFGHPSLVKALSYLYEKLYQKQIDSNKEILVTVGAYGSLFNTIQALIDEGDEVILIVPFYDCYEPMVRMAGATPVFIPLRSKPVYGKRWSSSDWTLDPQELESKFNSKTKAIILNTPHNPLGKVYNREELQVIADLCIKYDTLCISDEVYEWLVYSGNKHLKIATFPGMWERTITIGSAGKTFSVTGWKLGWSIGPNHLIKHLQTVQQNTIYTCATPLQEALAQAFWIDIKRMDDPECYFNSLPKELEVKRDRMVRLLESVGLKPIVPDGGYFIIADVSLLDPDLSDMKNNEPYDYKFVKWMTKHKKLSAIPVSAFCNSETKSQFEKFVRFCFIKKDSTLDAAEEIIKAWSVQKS

[10] = tested on: HepG2; test: Mitochondrial toxicity in human HepG2 cells assessed as mitochondrial membrane potential levels at 100 uM by TMRE-based mitochondria membrane potential assay relative to control; format: cell-based; settings: hepg2, 100 µM
[11] = biological target: T4, 3-hydroxyisobutyryl-CoA hydrolase, mitochondrial (Homo sapiens); test: Binding affinity to human recombinant HIBCH assessed as intensity fold change of cumulated normalized intensity of protein between capture and competition assay at 100 uM after 1 hr in presence of inactive Tcp-CC-14 by differential competition capture compound mass spectrometry
[12] = biological target: T7, Catechol O-methyltransferase (Homo sapiens) (UniProt P21964); test: as §1
T7 sequence (whole entry): T3 sequence (P21964 whole entry)

| fold change (FC) [2] | IC50 [3] [µM] | inhibition [12] | Structure (SMILES) | fold change (FC) [1] | Activity [4] [%] | fold change (FC) [5] | fold change (FC) [6] | fold change (FC) [7] | fold change (FC) [8] | fold change (FC) [9] | Activity [10] [%] | Activity [11] |
| --- | --- | --- | --- | --- | --- | --- | --- | --- | --- | --- | --- | --- |
| 3 | 0.179 |  | CCN1C(=O)S/C(=C/c2cc(O)c(O)c([N+](=O)[O-])c2)C1=O | 4.29 | > 50 | 1 | 24.9 | 6.34 | 3.1 | 3.4 |  |  |
| 7.5 |  |  | CCN(CC)C(=O)c1cc2cc(O)c(O)c([N+](=O)[O-])c2cc1C(=O)N(CC)CC | 3.67 | < 20 | 5.35 | 16 | 5.9 | 4.7 | 3.05 | 0 | inactive |
|  | 0.648 |  | CN(Cc1ccc(C(=O)c2cc(O)c(O)c([N+](=O)[O-])c2)cc1)C(=O)CCCCCNC(=O)C[C@H](NC(=O)c1ccc(N=[N+]=[N-])cc1)C(=O)NCCCOCCOCCOCCCNC(=O)CCCC[C@@H]1SC[C@@H]2NC(=O)N[C@@H]21 |  |  |  |  |  |  |  |  |  |

The next lines start with the molecule.

| Structure (SMILES) | fold change (FC) [2] | IC50 [3] [µM] | inhibition [12] | fold change (FC) [1] | Activity [4] [%] | fold change (FC) [5] | fold change (FC) [6] | fold change (FC) [7] | fold change (FC) [8] | fold change (FC) [9] | Activity [10] [%] | Activity [11] |
| --- | --- | --- | --- | --- | --- | --- | --- | --- | --- | --- | --- | --- |
| CCN(CC)C(=O)/C(C#N)=C/c1cc(O)c(O)c([N+](=O)[O-])c1 [ENTACAPONE] | 2.11 |  |  | 2.38 | > 50 | 1.04 | 3.46 | 6.09 | 2.98 | 8.63 | 40 |  |
| Cc1ccc(C(=O)c2cc(OCCCCNC(=O)C[C@H](NC(=O)c3ccc(N=[N+]=[N-])cc3)C(=O)NCCCOCCOCCOCCCNC(=O)CCCC[C@@H]3SC[C@@H]4NC(=O)N[C@@H]43)c(O)c([N+](=O)[O-])c2)cc1 |  |  | inactive |  |  |  |  |  |  |  |  |  |
| Cc1ccc(C(=O)c2cc(O)c(O)c([N+](=O)[O-])c2)cc1 [TOLCAPONE] |  |  |  | 7.59 | < 20 | 14.2 | 2.4 | 5.82 | 2.3 | 4.12 | 0 | Active |
